The numbers were not newly measured in patent publication US12595109B2, “Device to release water and antimicrobial vapor into an enclosed or partially enclosed space” (Arkema Inc., priority 2020, dated 2026), which cites them from elsewhere.

Read-outs that look alike come from different tables or passages of the source.

Series [1] has as its system Bacillus subtilis (Spores).
In series [2] the test system is Geobacillus stearothermophilus. The following applies: biological indicator, 2 mg/L gaseous H2O2.
Series [3] concerns Clostridium sporogenes (Spores).
Setting [4] is: Liquid solution of H2O2, c(H2O2) = 370 mg l^−1, T = 24-25° C.
Setting [5] is: VPHP, c(H2O2) = 1-2 mg l^−1, T = 24-25° C.

`OO` [hydrogen peroxide]: the maximum exposure result (ACGIH, 5 times the TLV-TWA) is given as “no more than 5 ppm”. Further, the TLV (ACGIH, 8 hour TWA) is 1 ppm. The STEL (United Kingdom and some other countries) was 2 ppm. Besides, the “Short Term Exposures (STELs)” value (Washington and Hawaii) was 3 ppm. The D-value in series [1] (setting [4]) is 2.0 to 7.3 min; in series [1] (setting [5]), 0.5 to 1 min; in the series with Bacillus (Spores) (setting [4]), 1.5 min; in the series with Bacillus (Spores) (setting [5]), 1 to 2 min; in series [2] it was 0.8 min; in series [3] (setting [4]), 0.8 min. In addition, in series [3] (setting [5]), the D-value was 0.5 to 1 min.
